Assay results from ChEMBL document CHEMBL1121951, “Synthesis and evaluation of N-(phenylalkyl)acetohydroxamic acids as potential substrates for N-arylhydroxamic acid N,O-acyltransferase” (1982).
Activity calls are given as the source filed them. The rule behind the calls is not given here.

Columns and labels:
Cricetulus griseus [1] = species on record: Cricetulus griseus; test: Effect of the compound on hamster hepatic N-arylhydroxamic acid N,O-acyltransferase activity
Rattus norvegicus = species on record: Rattus norvegicus; test: Transacetylation rate in rat hepatic AHAT preparation; assay type: functional
[2] = Effect for methylthio adduct formation at 2 mM concentration; assay type: functional
[3] = Effect for methylthio adduct formation at 1 mM concentration; assay type: functional
[4] = AHAT-catalyzed transacetylation rate at 0.5-1.0 concentration; No effect; assay type: functional
Cricetulus griseus [5] = species on record: Cricetulus griseus; test: Effect of the compound on hamster hepatic N,O-acyltransferase (AHAT) activity; assay type: functional
Cricetinae gen. sp. [6] = test: Transacetylation rate in hamster hepatic AHAT preparation; assay type: functional, Cricetulus griseus
[7] = Compound inhibit the AHAT-catalyzed transacetylation activity; Active; assay type: functional
Cricetinae gen. sp. [8] = test: Effect for methylthio adduct formation in presence of 0.1 mM N-hydroxy-4-aminobiphenyl and 10 mM N-acetylmethioninein hamster hepatic AHAT preparation at 30 min; assay type: functional, Cricetulus griseus
[9] = AHAT-catalyzed transacetylation rate at 0.5-1.0 concentration; assay type: functional

Structure (SMILES) | Activity (Cricetulus griseus [1]) [%] | Activity (Rattus norvegicus) | Reduction [2] [%] | Reduction [3] [%] | other results
CC(=O)N(O)Cc1ccccc1 | < 1 | – | – | – | –
CC(=O)N(O)CCCCc1ccccc1 | < 1 | 0.73 nmol/mg/min | – | – | –
CC(=O)N(O)C1CCC(c2ccccc2)CC1 (stereo unspecified) | < 1 | – | 23 | 13 | Activity [4]: inactive
CC(=O)N(O)CCc1ccccc1 | – | – | 17 | 8 | Activity (Cricetulus griseus [5]): < 1%
CC(=O)N(O)c1ccc(-c2ccccc2)cc1 | – | 4.99 nM/min | – | – | Activity (Cricetinae gen. sp. [6]): 9.14 nM/min; Activity [7]: Active; Activity (Cricetinae gen. sp. [8]): 120 nM; Activity [9]: 10%
CC(=O)N(O)CCCc1ccccc1 | < 1 | – | – | – | –
